Data published in patent US7442501B2, “SQV nucleic acids and polypeptides” (Massachusetts Institute of Technology, priority 2002, dated 2008).

What was measured:
[1] = molecular target: T1, chondroitin synthase (Caenorhabditis elegans, UniProt Q7Z1Z1); test: GalNAcT (N-acetylgalactosamyl transferase) assay of chondroitin synthase activity in worm protein extracts; type: biochemical
T1 construct: wild-type (N2) animals were used to prepare worm protein extracts; from tissue; host or cells: whole C. elegans hermaphrodites (young adults), sonicated protein extract
T1 sequence (Q7Z1Z1 1-736): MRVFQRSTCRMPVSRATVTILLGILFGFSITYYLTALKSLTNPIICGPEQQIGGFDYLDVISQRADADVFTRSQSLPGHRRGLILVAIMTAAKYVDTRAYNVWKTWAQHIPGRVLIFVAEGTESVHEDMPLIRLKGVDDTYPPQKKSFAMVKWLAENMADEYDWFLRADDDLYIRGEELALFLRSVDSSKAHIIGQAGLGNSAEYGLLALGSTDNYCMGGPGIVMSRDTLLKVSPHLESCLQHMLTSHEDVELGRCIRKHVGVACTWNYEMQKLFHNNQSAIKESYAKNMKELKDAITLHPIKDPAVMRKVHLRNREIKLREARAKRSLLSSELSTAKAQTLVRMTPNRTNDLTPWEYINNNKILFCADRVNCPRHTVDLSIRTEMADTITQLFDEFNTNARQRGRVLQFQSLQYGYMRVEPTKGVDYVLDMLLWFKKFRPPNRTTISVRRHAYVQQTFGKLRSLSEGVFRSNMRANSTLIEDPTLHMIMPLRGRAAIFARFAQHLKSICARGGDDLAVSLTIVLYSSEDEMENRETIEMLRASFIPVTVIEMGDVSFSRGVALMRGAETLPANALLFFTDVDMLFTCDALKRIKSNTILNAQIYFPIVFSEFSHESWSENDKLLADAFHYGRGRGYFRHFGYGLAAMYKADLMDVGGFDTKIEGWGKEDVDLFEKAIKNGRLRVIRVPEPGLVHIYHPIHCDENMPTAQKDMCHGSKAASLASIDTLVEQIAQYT
Procedure: (§1) sqv-5(n3611), sqv-5(n3611)/hT2, and wild-type (N2) animals were used to prepare worm protein extracts. These extracts were tested for chondroitin synthase activity using standard methods, for example, in DeAngelis et al., (J. Biol. Chem. 27:24124-24129, 2000).
(§2) A desulfated chondroitin acceptor was used for the GalNAcT (N-acetylgalactosamyl transferase) assay. Desulfated and β-glucuronidase-treated chondroitin acceptor was used for the GlcAT (glucuronyl transferase) assay.
(§3) The enzymatic activity of SQV-5 was assayed as follows. SQV-5(n3611), sqv-5(n3611)/hT2, and wild-type N2 hermaphrodites were picked as L4 larvae by visual examination of the vulva using a dissecting microscope. The worms staged were allowed to grow for an additional twenty-three to twenty-seven hours at 22° C., re-examined, then transferred to 1.7-ml plastic tubes containing sterile water. The staged worms were washed once with water and twice with 50 mM Tris, pH 7.5, then frozen in a 50 μl volume using liquid nitrogen, and stored at −70° C.
(§4) Worm extracts were assayed for GIcAT glucoronosyltransferase activity by combining 1.3×10^5 cpm UDP-^3H-glucuronic acid donor (NEN), 6 μg β-glucuronidase-treated chondroitin acceptor, and 2.7 μg worm extract in a 25 μl reaction volume containing 0.05% Triton X-100, 10 mM MnCl2, and 100 μM ATP, pH 6.5. GalNAcT activity was detected by combining 1.3 to 3×10^5 cpm UDP-^3H-GalNAc donor (NEN), 12 μg chondroitin acceptor, and 6.7 μg worm extract in a 25 μl reaction volume containing 0.05% Triton X-100 and 10 mM MnCl2, pH 6.5. […] Pelleted material was resuspended in water and counted by liquid scintillation.
(§5) The chondroitin acceptor used was prepared as follows. […] Uronic acid concentration of both preparations was determined by the Carbazole method (Bitter, et al., Anal. Biochem. 4:330-334, 1962).

[2] = tested on: chondroitin synthase; test: as above; type: biochemical; settings: extract genotype sqv-5/sqv-5 (sqv-5(n3611))
Procedure: as §1, §2, §3, §4, §5

CC(=O)N[C@H]1[C@@H](OP(=O)(O)OP(=O)(O)OC[C@H]2O[C@@H](n3ccc(=O)[nH]c3=O)[C@H](O)[C@@H]2O)O[C@H](CO)[C@H](O)[C@@H]1O [UDP-N-acetylgalactosamine]
CPM ([1]; extract genotype +/+ (wild-type)): 171 CPM
CPM ([1]; extract genotype +/sqv-5 (sqv-5(n3611)/hT2)): 134 CPM
CPM [2]: <0 CPM
